Results as given in patent publication US9499614B2, “Methods for modulating protein glycosylation profiles of recombinant protein therapeutics using monosaccharides and oligosaccharides” (AbbVie, Inc., priority 2013, dated 2016).

What was measured:
Cell Line 3 = assay: N-glycan oligosaccharide profiling, Cell Line 3 shake flasks (Example 2); assay type: cell-based, Chinese Hamster; conditions: 30 mM supplement vs control
Procedure: Two recombinant Chinese Hamster Ovary (CHO) cell lines expressing two different recombinant glycoproteins were evaluated in two different cultures vessels (shaker flasks and 3 L laboratory scale bioreactors). Cell Line 1 expressed Antibody 1, Cell Line 2 expressed Dual Variable Domain Immunoglobulin 1 (DVD 1) and Cell Line 3 expressed Antibody 2. Antibodies 1 and 2 are IgG1 proteins, and DVD 1 is an immunoglobulin with two variable domains as documented previously (Wu C. et al., (2007) Nat. Biotechnol 25(11):1290-1297). All cell lines were of CHO DUX-B11 origin based on a dhfr (dihydrofolate reductase) expression system. All cell lines were cultured in the same chemically defined basal media. Cell lines 1 and 2 were fed with the same chemically-defined feed media, but Cell Line 1 was fed media that was formulated at a 50% higher concentration. Each of the respective media were supplemented with either sucrose or tagatose to evaluate their potential impact on the resulting N-glycan oligosaccharide profile. All sugars were purchased from Sigma-Aldrich (St. Louis, Mo.). In preparation of the cultures, the cell lines were serially expanded through separate seed train inoculums to generate enough cells for inoculation.
(§1) Purified antibodies subjected to additional analytical characterization were purified using MabSelect™ Protein A (GE Healthcare, Piscataway, N.J.) using a low pH, step elution gradient, followed by buffer exchange using Corning Lifesciences (Tewksbury, Mass.) Spin Concentrator X UF columns according to the manufacturers' recommended procedures.
(§2) Approximately 200 μg of Protein A purified samples from Cell Lines 1 and 2 were treated with N-glycanase at 37° C. overnight to remove the N-glycans from the protein. The protein was precipitated and the supernatant was taken for subsequent chemical derivatization of the reducing end of the released glycans with 2-aminobenzamide (2-AB) dye. Following the derivatization step, the excess label was removed using clean up cartridges and the samples were analyzed using normal phase HPLC with fluorescent detection. Mobile phase A was 100% acetonitrile and mobile phase B was 50 mM ammonium formate pH 4.4. The glycans were eluted from a polyamide column (Prozyme, Hayward, Calif.) using a shallow gradient. The labeled glycans were detected using a fluorescence detector with an excitation wavelength of 330 nm and an emission wavelength of 420 nm.
Cell Line 3 was evaluated in shake flask culture in chemically defined media supplemented with 7, 15, and 30 mM sucrose. There was a significant increase in overall mannosylation levels, and thus a significant decrease in overall fucosylation levels. […] This cumulative increase of 19% in overall mannosylated N-glycans was accompanied by a 27% drop in NGA2F species, the majority of which was precluded from being formed due to the abrogation of the N-glycan biosynthetic reaction shown in FIG. 2. […] Antibody 3, purified from the sucrose supplemented cell cultures, was tested in a Cr-51 release assay to evaluate effector function, specifically ADCC activity. This was performed to verify that the lower level of fucosylated N-glycans linked to Antibody 3 would facilitate an increase in ADCC activity. Antibodies purified from the 30 mM sucrose supplemented culture had the highest levels of high mannose N-glycans, and lowest levels of fucosylated N-glycans.

Cell Line 2 = assay: N-glycan oligosaccharide profiling, Cell Line 2 shake flasks (Example 1); assay type: cell-based, Chinese Hamster; conditions: 30 mM supplement vs control
Procedure: Two recombinant Chinese Hamster Ovary (CHO) cell lines expressing two different humanized monoclonal antibodies (Antibody 1, Antibody 2) were evaluated in two different culture vessels (shaker flasks and laboratory scale bioreactors). Both cell lines were of CHO DUX-B11 origin based on a dhfr (dihydrofolate reductase) expression system. Both cell lines were cultured in the same chemically defined basal media (CDBM), with Cell Line 1 also utilizing a chemically-defined feed media (CDFM). Each of the respective media were supplemented with selected monosaccharides and oligosaccharides to evaluate their potential impact on the resulting N-glycan oligosaccharide profile. In preparing the cultures, the cell lines were serially expanded through separate seed train inoculums to generate enough cells for inoculation.
as §1, §2
Cell Line 2 was evaluated in shake flask culture in semi-fedbatch mode. Sucrose was supplemented into the basal media at various concentrations to evaluate the resulting impact on cell culture performance, as well as the protein glycosylation profile. On average, 7 mM, 15 mM, and 30 mM sucrose all nominally impacted overall cell growth, with only slight drops in peak viable cell density (1×10^6-2×10^6 cells/mL) as compared to the unsupplemented control. […] There was however, a very significant impact on the protein glycosylation profiles of harvest samples across all sucrose concentrations evaluated (FIG. 12). A concentration-dependent modulation of protein glycosylation was observed that was consistent with the results obtained for Cell Line 1.

In the case of `OC[C@H]1O[C@@](CO)(O[C@H]2O[C@H](CO)[C@@H](O)[C@H](O)[C@H]2O)[C@@H](O)[C@@H]1O` [sucrose], the “cumulative increase in overall mannosylated N-glycans” value (Cell Line 3) is reported as 19%, the “decrease in overall fucosylation level” value (Cell Line 3) is reported as 19% and the “drop in NGA2F species” value (Cell Line 3) is reported as 27%. The “increase in Man 5 species” value (Cell Line 3) was 17%, the “increase in Man 6 species” value (Cell Line 3) was 1% and the “increase in Man 7 species” value (Cell Line 3) was 1%. The “increase in NGA2F-GlcNAc species” value (Cell Line 3) was 8%, the “cumulative increase in overall mannosylated N-glycans” value (Cell Line 2) was 19% and the “drop in NGA2F species” value (Cell Line 2) was 27%. For the same compound, the “drop in overall fucosylation” value (Cell Line 2) was 19%, the “increase in Man 5 species” value (Cell Line 2) was ≤ 17% and the “increase in Man 6 species” value (Cell Line 2) was 1%. For the same compound, the “increase in Man 7 species” value (Cell Line 2) was 1%.
